Earlier results, collected in patent US20050013939A1, “Boron-based wood preservatives and treatment of wood with boron-based preservatives” (priority 2001, published 2005).

Legend:
Insect = settings: boric acid equivalents typically required in wood
fungal decay = settings: boric acid equivalents typically required in wood

For `OB(O)O` [boric acid], the “% wt/wt BAE required, Insect protection” value (Insect) is listed as 0.25 % wt/wt and the “% wt/wt BAE required, Fungicidal protection” value (fungal decay) is listed as 0.75 % wt/wt.
